Results: a melting point compilation (Tetko et al.; mined from patent text by program, amines drawn as free bases though some values may be those of a salt)

Row | melting point [°C] | Compound
1 | 190 to 192 | O=C1NC(c2ccccc2)CN1S(=O)(=O)c1ccc2c(c1)CCN2C(=S)Nc1ccc(F)cc1 (configuration not stated)
2 | 178 to 180 | CS(=O)(=O)c1ccc(-c2cc(=O)n(CC(=O)c3ccccc3)nc2-c2ccc(F)cc2)cc1
3 | 88 to 93 | COc1ccc(CCNC(=O)CN(c2ccccc2)c2ccccc2)cc1OC
4 | 106 to 107 | COc1ccc(OCCCCBr)c(C2Sc3cc(Cl)ccc3N(C)C2=O)c1 (configuration not stated)
5 | 168 to 170 | Cc1ccc(C(=O)Nc2ccc(CN3CCCC3)c(C(F)(F)F)c2)cc1Br
6 | 113 to 114 | O=C1OC2(C=Cc3ccccc3O2)c2ccccc21 (configuration not stated)
7 | 110 to 113 | CCC(C)(N=NC(C)(CC)NC(=O)NC1CCCCC1)NC(=O)NC1CCCCC1 (configuration not stated)
8 | 202 | Cc1ccccc1C(=O)Nc1ccc(C(=O)N2CCCC(N(C)C)c3ccccc32)cc1O (configuration not stated)
9 | 90 | O=c1cnn(-c2ccc(C(c3ccc(Cl)cc3)c3cc(-c4ccccc4)cs3)c(Cl)c2)c(=O)[nH]1 (configuration not stated)
10 | 225 | CC1(C)Oc2ccc(C#N)cc2[C@@H](NC(=O)c2ccc(C(F)(F)F)cc2)[C@@H]1O (relative stereo)
11 | 48 | CCCCCCCCCCCCC/C=C1\C(=O)OCC1(CO)COC(C)=O (configuration not stated)
12 | 122 to 124 | Clc1ccc2cc(OC3CCCCO3)ccc2n1 (configuration not stated)
13 | 207 | CCNC(=S)NS(=O)(=O)c1cc2c(cc1OC)OCCC2CNC(=O)c1cc(F)ccc1OC (configuration not stated)
14 | 201 to 202 | COc1ccc(Cl)cc1C(=O)NC1Cc2cc(S(=O)(=O)NC(=S)NC(C)C)c(OC)cc2OC1(C)C (configuration not stated)
15 | 168 | CN(CCCCOc1ccc(C=C2SC(=O)NC2=O)cc1)c1nc2ccccc2o1
16 | 220 to 222 | N#CC(C#N)=C1Sc2nc3ccc([N+](=O)[O-])cc3nc2S1
17 | > 250 | Cn1nc(-c2nc(C#N)c(N)nc2-c2ccccc2)ccc1=O

Row | melting point [°C] | Compound
18 | 115 to 116 | COc1cc(C=CC=O)ccc1OCc1csc(-c2ccccc2)n1
19 | 102 to 107 | CCCCN(C)CCOc1ccc(-n2c(-c3ccc(O)cc3)c(C)c3cc(O)ccc32)cc1
20 | 132 to 134 | Cc1sc(C(=O)O)c(SC(C)C)c1Br
21 | 137 | CCC(Cl)c1nc2cccnc2[nH]1 (configuration not stated)
22 | 100 to 102 | CCOC(=O)C(C)Oc1ncn(-c2cccc(C(F)(F)F)c2)n1 (configuration not stated)
23 | 77 to 79 | Cc1nnc(-c2nnc(SCCC(F)=C(F)F)o2)o1
24 | 201 | O=C(C=Cc1ccc(N2CCCC2)nc1)N1CCc2c([nH]c3ccccc23)C1c1ccc2c(c1)CCO2 (configuration not stated)
25 | > 260 | CCCS(=O)(=O)Nc1ccc(-c2ccc(C(=O)O)c(=O)[nH]2)cc1
26 | 287 to 289 | O=C(C=Cc1ccco1)Nc1nnn[nH]1
27 | 147 to 150 | CN(C=C(c1ccccc1)c1ccccc1)C(=O)c1sc2ccc(C(F)(F)F)cc2c1O
28 | 174 to 175 | CN(C(=O)Nc1ccccc1C=Cc1cc(C(C)(C)C)c(O)c(C(C)(C)C)c1)C1CCN(Cc2ccc(F)cc2)CC1
29 | 110 to 113 | Cc1oc(-c2ccccc2)nc1CCOc1ccc(CO)cc1
30 | 172 | CC(C)(C)OC(=O)N1CCc2c(n(CC(=O)Nc3ccccc3)c3cc(Cl)c(Cl)cc23)CC1
31 | 201 to 202 | CC[C@@H]1O[C@](C#CC2CC2)(C(F)(F)F)c2c(ccc3c2OCO3)NC1=O (relative stereo)
32 | 118 | CC(C)c1c(Oc2ccccc2)n(COCc2ccccc2)c(=O)[nH]c1=O
33 | 148 to 150 | CC(=O)OC1CC2C3CCC(C(C)CCCC(C)C)C3(C)CCC2C2(C)CC(F)C(O)CC12 (configuration not stated)
34 | 205 to 207 | COc1ccc(Cl)cc1C1(F)C(=O)Nc2ccc(F)cc21 (configuration not stated)

Row | Compound | melting point [°C]
35 | Cn1nc(-c2ccc3c(c2)CCNCC3)ccc1=O | 183 to 185
36 | CN1C(=O)N(c2cc(F)c(C#N)cc2F)C(=O)CC1(N)C(F)(F)F (configuration not stated) | 115
37 | Nc1noc(C23CCCN(CC2)C3)n1 (configuration not stated) | 197 to 199
